Measurements: ChEMBL document CHEMBL5442379, “ASAP - SARS-CoV-2 nsp3 macrodomain single point” (2024)

Target: Replicase polyprotein 1ab (Severe acute respiratory syndrome coronavirus 2) (UniProt P0DTD1)
Description: Functional biochemical assay to identify treatments for viral infectious disease that targets SARS-COV-2 nsp3 macrodomain, whereby the mechanism of action displaces an ADP-Ribose modified peptide from the binding site. Utilizing a time-resolved fluorescence method to measure binding by reading the emitted fluorescence intensity in two wavelengths.

Cc1cccc(C)c1-n1nnnc1CSc1ncnc2[nH]cnc12
inhibition (Concentration 50.0 uM, Number of replicates 2.0, Standard deviation 4.544 %): 6.63%

COC(=O)[C@]1(F)CCN(C(=O)c2ccc(NC(=O)Nc3ccccc3)cc2)C1
inhibition (Concentration 49.75 uM, Number of replicates 2.0, Standard deviation 1.195 %): -0.893% | inhibition (Concentration 99.5 uM, Number of replicates 2.0, Standard deviation 2.11 %): 0.834%

NCC(F)(F)CNC(=O)c1ccc(NC(=O)Nc2ccccc2)cc1
inhibition (Concentration 49.75 uM, Number of replicates 2.0, Standard deviation 4.8 %): -0.965% | inhibition (Concentration 99.5 uM, Number of replicates 2.0, Standard deviation 1.089 %): -1.17%

Cc1cccc(Cl)c1-n1sc(=O)n(CC2CC2)c1=O
inhibition (Concentration 50.0 uM, Number of replicates 2.0, Standard deviation 1.233 %): 51.9%

Cc1nc2cnccn2c1NC(=O)c1cc(-c2ccco2)[nH]n1
inhibition (Concentration 50.0 uM, Number of replicates 2.0, Standard deviation 2.08 %): -3.88%

c1ccc(OC[C@@H]2CCCN2c2ncnc3[nH]ccc23)cc1
inhibition (Concentration 50.0 uM, Number of replicates 2.0, Standard deviation 1.709 %): -0.466%

O=C(CCN(Cc1cccc(Cl)c1)C(=O)c1cnon1)N1CCNCC1
inhibition (Concentration 49.75 uM, Number of replicates 2.0, Standard deviation 0.478 %): -2.44% | inhibition (Concentration 99.5 uM, Number of replicates 2.0, Standard deviation 0.154 %): -1.08%

CC(C)[C@@H](Nc1ncnc2n[nH]cc12)c1cnn(C)c1
inhibition (Concentration 50.0 uM, Number of replicates 2.0, Standard deviation 1.634 %): 63.5%

CC(C)[C@@H](Nc1ncnc2[nH]ccc12)c1nc2ccccc2[nH]1
inhibition (Concentration 49.75 uM, Number of replicates 2.0, Standard deviation 3.253 %): 37.3% | inhibition (Concentration 99.5 uM, Number of replicates 2.0, Standard deviation 1.702 %): 52.5%

O=C1C[C@@]2(CCCN(c3ncnc4[nH]ccc34)C2)CN1
inhibition (Concentration 50.0 uM, Number of replicates 2.0, Standard deviation 0.483 %): -2.45%

O=C(CCN(Cc1cccc(Cl)c1)C(=O)[C@@H]1CC1(F)F)N1CCNCC1
inhibition (Concentration 49.75 uM, Number of replicates 2.0, Standard deviation 3.095 %): -2.07% | inhibition (Concentration 99.5 uM, Number of replicates 2.0, Standard deviation 1.648 %): -3.76%

Nc1c(O)cccc1C(=O)N(CCC(=O)N1CCNCC1)Cc1cccc(Cl)c1
inhibition (Concentration 49.75 uM, Number of replicates 2.0, Standard deviation 0.165 %): -1.24% | inhibition (Concentration 99.5 uM, Number of replicates 2.0, Standard deviation 3.032 %): 1.46%

Cc1nc(NC(=O)[C@@H]2CCCOC2)c2ccnc-2[nH]1
inhibition (Concentration 50.0 uM, Number of replicates 2.0, Standard deviation 1.269 %): -3.2%

CN1CCOc2cccc(NC(=O)Nc3cnc4[nH]ncc4c3)c21
inhibition (Concentration 50.0 uM, Number of replicates 2.0, Standard deviation 1.985 %): -6.54%

Cc1nc(NC(=O)Cn2cnc3ccccc3c2=O)c2cc[nH]c2n1
inhibition (Concentration 49.75 uM, Number of replicates 2.0, Standard deviation 4.18 %): -4.07% | inhibition (Concentration 99.5 uM, Number of replicates 2.0, Standard deviation 1.131 %): -4.89%

O=C(c1ccccc1)N1CCC(c2ccn3ncc(C(=O)N4CCCC[C@H](O)C4)c3c2)CC1
inhibition (Concentration 49.75 uM, Number of replicates 2.0, Standard deviation 40.732 %): 17.8% | inhibition (Concentration 99.5 uM, Number of replicates 2.0, Standard deviation 41.407 %): 29.8%

CC(C)[C@@H](Nc1ncnc2[nH]ccc12)C(=O)N(C)Cc1nnc2n1CCC2
inhibition (Concentration 49.75 uM, Number of replicates 2.0, Standard deviation 4.689 %): -8.89% | inhibition (Concentration 99.5 uM, Number of replicates 2.0, Standard deviation 1.151 %): -6.14%

COCc1nc(CNc2ncc3c(n2)COC3)cs1
inhibition (Concentration 50.0 uM, Number of replicates 2.0, Standard deviation 8.324 %): -7.14%
